Test results as given in patent publication US6864219B2, “Substituted aryl ketones” (Bayer Aktiengesellschaft, priority 2000, dated 2005).
Read-outs that look alike come from different tables or passages of the source.

How the values were obtained:
[1] = log P determination by HPLC on reversed-phase column (C 18), EEC Directive 79/831 V.A8; format: physicochemical; settings: for logP (Physical data, Table 1): labelled a): acidic range, 0.1% aqueous phosphoric acid/acetonitrile gradient, 43° C.
Protocol: The log P values given in Table 1 were determined in accordance with EEC Directive 79/831 V.A8 by HPLC (High Performance Liquid Chromatography) on a reversed-phase column (C 18). Temperature: 43° C.
(a) Mobile phases for the determination in the acidic range: 0.1% aqueous phosphoric acid, acetonitrile; linear gradient of 10% acetonitrile to 90% acetonitrile—the corresponding data in Table 1 are labelled ^a).
(b) Mobile phases for the determination in the neutral range: 0.01 molar aqueous phosphate buffer solution, acetonitrile, linear gradient from 10% acetonitrile to 90% acetonitrile—the corresponding data in Table 1 are labelled ^b).

weeds [2] = test: Pre-emergence test (Example A), activity against weeds; format: in vivo; settings: soil sprayed 24 hours after sowing; damage rated after three weeks
Protocol: (§1) To produce a suitable preparation of active compound, 1 part by weight of active compound is mixed with the stated amount of solvent, the stated amount of emulsifier is added and the concentrate is diluted with water to the desired concentration.
Seeds of the test plants are sown in normal soil. After 24 hours, the soil is sprayed with the preparation of active compound such that the particular amount of active compound desired is applied per unit area. The concentration of active compound in the spray liquor is chosen such that the particular amount of active compound desired is applied in 1000 liters of water per hectare.
After three weeks, the degree of damage to the plants is rated in % damage in comparison to the development of the untreated control. The figures denote: • 0%=no effect (like untreated control) • 100%=total destruction

weeds [3] = test: Post-emergence test (Example B), activity against weeds; format: in vivo; settings: test plants 5-15 cm sprayed; damage rated after three weeks
Protocol: as §1
Test plants with a height of 5-15 cm are sprayed with the preparation of active compound such that the particular amounts of active compound desired are applied per unit area. The concentration of the spray liquor is chosen so that the particular amounts of active compound desired are applied in 1000 l of water/ha.
After three weeks, the degree of damage to the plants is rated in % damage in comparison to the development of the untreated control.
The figures denote: • 0%=no effect (like untreated control) • 100%=total destruction

[4] = reversed-phase HPLC column (C 18), mobile-phase label not given, read-out: Log P (preparation examples)
[5] = reversed-phase HPLC column (C 18), labelled a): acidic range; read-out: logP)
[6] = reversed-phase HPLC column (C 18), labelled a): acidic range, starting materials of formula (II)/(IIA), read-out: logP (Physical data, Table 2)

SMILES	logP (Physical data, Table 1) [1]	other results
Cc1nn(CCOc2c(S(C)(=O)=O)ccc(C(=O)C3=C(O)CCCC3=O)c2Cl)c(=O)n1C [Example 11]	logP = 1.65^a)	activity against weeds, pre-emergence (weeds [2]): strong activity; activity against weeds, post-emergence (weeds [3]): strong activity
COC(=O)c1ccc(Cl)c(OCCCl)c1C [methyl 4-chloro-3-(2-chloro-ethoxy)-2-methyl-benzoate]		chromatographic logP [1, 4]: 3.52
CCn1ncc(C(=O)c2ccc(SC)c(OC[C@@H]3CCC(=O)N3)c2Cl)c1O [Example 20]	(S enantiomer) logP = 1.60^a)	
Cc1nn(CCOc2c(Cl)ccc(C(=O)C3=C(O)CCCC3=O)c2Cl)c(=O)n1C [Example 4]	logP = 1.92^a)	activity against weeds, pre-emergence (weeds [2]): strong activity; activity against weeds, post-emergence (weeds [3]): strong activity
COCc1nn(CCOc2c(Cl)ccc(C(=O)C3=C(O)CCCC3=O)c2C)c(=O)n1C [Example 32]	logP = 2.04^a)	
CCn1c(OC)nn(CCOc2c(Cl)ccc(C(=O)C3=C(O)CCCC3=O)c2C)c1=O [Example 26]	logP = 2.15^a)	
CCn1ncc(C(=O)c2ccc(Cl)c(OCCn3nc(OC)n(CC)c3=O)c2C)c1O [Example 29]	logP = 2.12^a)	
COCc1nn(CCOc2c(SC)ccc(C(=O)C3=C(O)CCCC3=O)c2Cl)c(=O)n1C [Example 44]	logP = 2.05^a)	
COC(=O)c1ccc(Cl)c(OCCn2nc(C)n(C)c2=O)c1C [II-1, methyl 4-chloro-3-[2-(3′,4′-dimethyl-1′,2′,4′-1H-triazolin-5′-on-1′-yl)-ethoxy]-2-methyl-benzoate]		chromatographic logP [1, 4]: 1.94
CCn1ncc(C(=O)c2ccc(Cl)c(OCCn3nc(COC)n(C)c3=O)c2C)c1O [Example 30]	logP = 1.78^a)	
CSc1nn(COc2c(Cl)ccc(C(=O)C3=C(O)CCCC3=O)c2Cl)c(=O)n1C [Example 13]	logP = 2.44^a)	activity against weeds, post-emergence (weeds [3]): strong activity
CSc1nn(CCOc2c(Cl)ccc(C(=O)C3=C(O)CCCC3=O)c2Cl)c(=O)n1C [Example 21]	logP = 2.39^a)	
CCn1ncc(C(=O)c2ccc(Cl)c(OCCn3nc(COC)n(C)c3=O)c2Cl)c1O [Example 18]	logP = 1.62^a)	
CCOc1nn(COc2c(Cl)ccc(C(=O)O)c2Cl)c(=O)n1C [II-8, 3-(3′-ethoxy-4′-methyl-1′,2′,4′-1H-triazolin-5′-on-1′-yl)-methoxy-2,4-dichloro-benzoic acid]		chromatographic logP [1, 4]: 1.74
CCn1ncc(C(=O)c2ccc(Cl)c(OC[C@@H]3CCC(=O)N3C)c2Cl)c1O [Example 40]	(S enantiomer) logP = 1.67^a)	
CCn1ncc(C(=O)c2ccc(Cl)c(OCCn3nc(OC)n(C)c3=O)c2Cl)c1O [Example 15]	logP = 1.69^a)	
CN1C(=O)CC[C@H]1COc1c(Cl)ccc(C(=O)C2=C(O)CCCC2=O)c1Cl [Example 39]	(S enantiomer) logP = 2.12^a)	
CSc1ccc(C(=O)C2=C(O)CCCC2=O)c(Cl)c1OCCn1nc(SC)n(C)c1=O [Example 34]	logP = 2.36^a)	
CSc1ccc(C(=O)C2=C(O)CCCC2=O)c(Cl)c1OC[C@@H]1CCC(=O)N1 [Example 24]	(S enantiomer) logP = 1.98^a)	
Cc1c(C(=O)C2=C(O)CCCC2=O)ccc(Cl)c1OC[C@@H]1CCC(=O)N1C [Example 38]	(S enantiomer) logP = 2.10^a)	
CCOC(=O)c1ccc(Cl)c(OCCBr)c1Cl [ethyl 2,4-dichloro-3-(2-bromo-ethoxy)-benzoate]		chromatographic logP [1, 5]: 3.98
CCn1ncc(C(=O)c2ccc(Cl)c(OCCn3nc(SC)n(C)c3=O)c2C)c1O [Example 27]	logP = 2.11^a)	
CCOC(=O)c1ccc(Cl)c(OC[C@@H]2CCC(=O)N2)c1Cl [II-61, ethyl (S)-2,4-dichloro-3-[(2-oxo-pyrrolidin-5-yl)-methoxy]-benzoate]		chromatographic logP [1, 5]: 2.14; chromatographic logP [1, 6]: 2.15
CCn1ncc(C(=O)c2ccc(Cl)c(OCCn3nc(OC)n(CC)c3=O)c2C)c1O [Example 25]	logP = 1.88^a)	
CSc1ccc(C(=O)C2=C(O)CCCC2=O)c(Cl)c1OC[C@@H]1CCC(=O)N1C [Example 46]	(S enantiomer) logP = 2.13^a)	

SMILES	logP (Physical data, Table 1) [1]	other results
CCn1ncc(C(=O)c2ccc(Cl)c(OCCn3nc(C)n(C)c3=O)c2C)c1OCc1ccc(Br)cc1 [Example 12]	logP = 2.07^a)	
CCn1ncc(C(=O)c2ccc(Br)c(OC[C@@H]3CCC(=O)N3)c2Br)c1O [Example 60]	(S enantiomer) logP = 1.56^a)	
COCc1nn(CCOc2c(Cl)ccc(C(=O)C3=C(O)CCCC3=O)c2Cl)c(=O)n1C [Example 19]	logP = 2.06^a)	
CCOC(=O)c1ccc(S(C)(=O)=O)c(OCCn2nc(C)n(C)c2=O)c1C [II-3, ethyl 3-[2-(3′,4′-dimethyl-1′,2′,4′-1H-triazolin-5′-on-1′-yl)-ethoxy]-2-methyl-4-methylsulphonyl-benzoate]		chromatographic logP [1, 4]: 1.76
CSc1nn(CCOc2c(Cl)ccc(C(=O)C3=C(O)CCCC3=O)c2C)c(=O)n1C [Example 28]	logP = 2.38^a)	
COC(=O)c1ccc(SC)c(OCCn2nc(C)n(C)c2=O)c1C [II-2, methyl 3-[2-(3′,4′-dimethyl-1′,2′,4′-1H-triazolin-5′-on-1′-yl)-ethoxy]-2-methyl-4-methylthio-benzoate]		chromatographic logP [1, 4]: 1.89
CCn1ncc(C(=O)c2ccc(Cl)c(OC[C@@H]3CCC(=O)N3C)c2C)c1O [Example 37]	(S enantiomer) logP = 1.85^a)	
CCn1ncc(C(=O)c2ccc(Cl)c(OC[C@@H]3CCC(=O)N3)c2C)c1O [Example 35]	(S enantiomer) [α]D^20 = +2.3 logP = 1.67^a)	
CCOC(=O)c1ccc(Cl)c(OCn2nc(OCC)n(C)c2=O)c1Cl [II-6, ethyl 3-(3′-ethoxy-4′-methyl-1′,2′,4′-1H-triazolin-5′-on-1′-yl)-methoxy-2,4-dichloro-benzoate]		chromatographic logP [1, 4]: 2.77
CCn1c(OC)nn(CCOc2c(Cl)ccc(C(=O)C3=C(O)CCCC3=O)c2C)c1=O [Example 31]	logP = 2.38^a)	
O=C1CC[C@@H](COc2c(Br)ccc(C(=O)C3=C(O)CCCC3=O)c2Br)N1 [Example 61]	(S enantiomer) logP = 2.02^a)	
CCOC(=O)c1ccc(Cl)c(OCCn2nc(SC)n(C)c2=O)c1Cl [II-35, ethyl 2,4-dichloro-3-[2-(3-methylthio-4-methyl-5-oxo-1,2,4-triazolin-1-yl)-ethoxy]-benzoate]		chromatographic logP [1, 5]: 2.66; chromatographic logP [1, 6]: 2.66
CCn1ncc(C(=O)c2ccc(Cl)c(OCCn3nc(SC)n(C)c3=O)c2Cl)c1O [Example 16]	logP = 1.92^a)	
O=C1CC[C@@H](COc2c(Cl)ccc(C(=O)C3=C(O)CCCC3=O)c2Cl)N1 [Example 47]	(S enantiomer) logP = 1.95^a)	
CCn1ncc(C(=O)c2ccc(SC)c(OCCn3nc(C)n(C)c3=O)c2Cl)c1OCc1ccc(Br)cc1 [Example 14]	logP = 2.05^a)	
CCn1ncc(C(=O)c2ccc(SC)c(OC[C@@H]3CCC(=O)N3C)c2Cl)c1O [Example 45]	(S enantiomer) logP = 1.68^a)	
Cc1nn(CCOc2c(Cl)ccc(C(=O)Cl)c2Cl)c(=O)n1C [II-5, 2,4-dichloro-3-[2-(3′,4′-dimethyl-1′,2′,4′-1H-triazolin-5′-on-1′-yl)-ethoxy]-2-benzoyl chloride]		chromatographic logP [1, 4]: 1.24
CCn1c(OC)nn(CCOc2c(Cl)ccc(C(=O)C3=C(O)CCCC3=O)c2Cl)c1=O [Example 22]	logP = 2.16^a)	
Cc1c(C(=O)C2=C(O)CCCC2=O)ccc(Cl)c1OC[C@@H]1CCC(=O)N1 [Example 36]	(S enantiomer) logP = 1.94^a)	
CCn1ncc(C(=O)c2ccc(Cl)c(OCCn3nc(OC)n(CC)c3=O)c2Cl)c1O [Example 17]	logP = 1.93^a)	
CCn1ncc(C(=O)c2ccc(Cl)c(OC[C@@H]3CCC(=O)N3)c2Cl)c1O [Example 48]	(S enantiomer) logP = 1.51^a)	
CCn1ncc(C(=O)c2ccc(SC)c(OCCn3nc(SC)n(C)c3=O)c2Cl)c1O [Example 33]	logP = 1.97^a)	
Cc1c(C(=O)O)ccc(Cl)c1OCCn1nc(C)n(C)c1=O [II-4, 4-chloro-3-[2-(3′,4′-dimethyl-1′,2′,4′-1H-triazolin-5′-on-1′-yl)-ethoxy]-2-methyl-benzoic acid]		chromatographic logP [1, 4]: 1.37
COC(=O)c1ccc(Cl)c(O)c1C [methyl 4-chloro-3-hydroxy-2-methyl-benzoate]		chromatographic logP [1, 4]: 2.14
